According to patent US7498438B2, “Fused ring NK1 antagonists” (Schering Corporation, priority 2004, dated 2009):

biological target: NK1 receptor (Homo sapiens, UniProt P25103); assay: NK1 receptor binding: inhibition of Substance P binding, Ki by the Chang-Prusoff equation
From the text: The in vitro and in vivo NK1, NK2 and NK3 activities of the compounds of Formula 1 can be determined by various procedures known in the art, such as a test for their ability to inhibit the activity of the NK1 agonist Substance P. The percent inhibition of neurokinin agonist activity is the difference between the percent of maximum specific binding (“MSB”) and 100%. The percent of MSB is defined by the following equation, wherein “dpm” represents “disintegrations per minute”:
[formula] The concentration at which the compound produces 50% inhibition of binding is then used to determine an inhibition constant (“Ki”) using the Chang-Prusoff equation.
The activities (potencies) for the compounds of the invention are determined by measuring their Ki values. […] Even more preferred are compounds having average Ki values of from 0.01 nM to about 10 nM for the NK1 receptor. Especially preferred compounds have NK1 average Ki values of from 0.01 nM to about 3 nM. Even more especially preferred compounds have NK1 average Ki values of from 0.01 nM to about 0.3 nM.

Chain of NK1 receptor (P25103 whole entry, species assumed): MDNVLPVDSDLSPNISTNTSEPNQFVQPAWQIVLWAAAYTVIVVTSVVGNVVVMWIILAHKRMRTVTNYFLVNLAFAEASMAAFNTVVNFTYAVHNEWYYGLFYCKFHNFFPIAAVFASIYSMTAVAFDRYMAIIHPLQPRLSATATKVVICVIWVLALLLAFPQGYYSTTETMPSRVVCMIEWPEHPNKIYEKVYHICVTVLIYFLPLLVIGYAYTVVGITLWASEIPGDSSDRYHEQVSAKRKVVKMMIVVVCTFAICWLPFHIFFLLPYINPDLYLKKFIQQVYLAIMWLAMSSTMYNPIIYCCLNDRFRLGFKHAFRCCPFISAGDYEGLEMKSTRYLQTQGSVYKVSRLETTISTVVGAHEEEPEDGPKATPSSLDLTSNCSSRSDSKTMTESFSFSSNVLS

Ki | Compound
0.14 nM | C[C@@H](OC[C@@]1(c2ccccc2)CC[C@@H]2NC(=O)OCCC2N1)c1cc(C(F)(F)F)cc(C(F)(F)F)c1 (some centres unmarked) [Compound 6a]
0.23 nM | C[C@@H](OC[C@@]1(c2ccccc2)C[C@H]2NC(=O)NC2CN1)c1cc(C(F)(F)F)cc(C(F)(F)F)c1 (some centres unmarked) [Compound 1a]
0.62 nM | C[C@@H](OC[C@@]1(c2ccccc2)CCC2OC(=O)NC2N1)c1cc(C(F)(F)F)cc(C(F)(F)F)c1 (single isomer, unassigned) [Compound 4a]
0.36 nM | C[C@@H](OC[C@@]1(c2ccccc2)CC[C@@H]2NC(=O)NCC2N1)c1cc(C(F)(F)F)cc(C(F)(F)F)c1 (some centres unmarked) [Compound 8]
0.28 nM | C[C@@H](OC[C@@]1(c2ccccc2)C[C@H]2OC(=O)NC2CN1)c1cc(C(F)(F)F)cc(C(F)(F)F)c1 (some centres unmarked) [Compound 9a]
0.23 nM | C[C@@H](OC[C@@]1(c2ccccc2)CC[C@@H]2NC(=O)CC2N1)c1cc(C(F)(F)F)cc(C(F)(F)F)c1 (some centres unmarked) [Compound 5a]
0.3 nM | C[C@@H](OC[C@@]1(c2ccccc2)CC[C@@H]2NC(=O)CCC2N1)c1cc(C(F)(F)F)cc(C(F)(F)F)c1 (some centres unmarked) [Compound 7]
0.32 nM | C[C@@H](OC[C@@]1(c2ccccc2)CCC2OC(=O)NC2N1)c1cc(C(F)(F)F)cc(C(F)(F)F)c1 (single isomer, unassigned) [Compound 4b]
